{
  "source": "ChEMBL document CHEMBL3046114",
  "about": "“Synthesis and phytotoxic activity of novel acylthiourea and 2H-1,2,4-thiadiazolo[2,3-]pyrimidine derivatives” (2012)",
  "assay_type_in_all_cases": "functional",
  "settings_in_all_cases": "read-out: GI",
  "key": {"[1]": {"test_system": "Brassica napus", "assay": "Phytotoxicity against Brassica napus (oilseed rape) germinated seed assessed as growth inhibition at 10 mg/L after 72 hr by culture dish method"}, "[2]": {"test_system": "Echinochloa crus-galli", "assay": "Phytotoxicity against Echinochloa crus-galli (barnyard grass) germinated seed assessed as growth inhibition at 100 mg/L after 72 hr by culture dish method"}, "[3]": {"test_system": "Brassica napus", "assay": "Phytotoxicity against Brassica napus (oilseed rape) germinated seed assessed as growth inhibition at 100 mg/L after 72 hr by culture dish method"}, "[4]": {"test_system": "Digitaria ciliaris", "assay": "Phytotoxicity against Digitaria ciliaris germinated seed assessed as growth inhibition at 100 mg/L after 72 hr by culture dish method"}, "[5]": {"test_system": "Chenopodium ficifolium", "assay": "Phytotoxicity against Chenopodium ficifolium germinated seed assessed as growth inhibition at 10 mg/L after 72 hr by culture dish method"}, "[6]": {"test_system": "Chenopodium ficifolium", "assay": "Phytotoxicity against Chenopodium ficifolium germinated seed assessed as growth inhibition at 100 mg/L after 72 hr by culture dish method"}, "[7]": {"test_system": "Echinochloa crus-galli", "assay": "Phytotoxicity against Echinochloa crus-galli (barnyard grass) germinated seed assessed as growth inhibition at 10 mg/L after 72 hr by culture dish method"}, "[8]": {"test_system": "Digitaria ciliaris", "assay": "Phytotoxicity against Digitaria ciliaris germinated seed assessed as growth inhibition at 10 mg/L after 72 hr by culture dish method"}},
  "data": [
    {"smiles": "COc1cc(SC)nc2n/c(=N/C(=O)c3c(-c4ccc(Cl)cc4Cl)noc3C)sn12", "values": [
      {"measurement": "inhibition of growth at 10 µg/mL", "setting": "[1]", "result": 27.4, "unit": "%"},
      {"measurement": "inhibition of growth at 100 µg/mL", "setting": "[2]", "result": 55.6, "unit": "%"},
      {"measurement": "inhibition of growth at 100 µg/mL", "setting": "[3]", "result": 75.8, "unit": "%"},
      {"measurement": "inhibition of growth at 100 µg/mL", "setting": "[4]", "result": 79.6, "unit": "%"},
      {"measurement": "inhibition of growth at 10 µg/mL", "setting": "[5]", "result": 23.8, "unit": "%"},
      {"measurement": "inhibition of growth at 100 µg/mL", "setting": "[6]", "result": 68.3, "unit": "%"},
      {"measurement": "inhibition of growth at 10 µg/mL", "setting": "[7]", "result": 21.4, "unit": "%"},
      {"measurement": "inhibition of growth at 10 µg/mL", "setting": "[8]", "result": 19.8, "unit": "%"}
    ]},
    {"smiles": "Cc1cc(O)nc(NC(=S)NC(=O)c2c(-c3ccc(Cl)cc3Cl)noc2C)n1", "values": [
      {"measurement": "inhibition of growth at 10 µg/mL", "setting": "[1]", "result": 6.7, "unit": "%"},
      {"measurement": "inhibition of growth at 100 µg/mL", "setting": "[2]", "result": 46.8, "unit": "%"},
      {"measurement": "inhibition of growth at 100 µg/mL", "setting": "[3]", "result": 52.3, "unit": "%"},
      {"measurement": "inhibition of growth at 100 µg/mL", "setting": "[4]", "result": 49.3, "unit": "%"},
      {"measurement": "inhibition of growth at 10 µg/mL", "setting": "[5]", "result": -5.86, "unit": "%"},
      {"measurement": "inhibition of growth at 100 µg/mL", "setting": "[6]", "result": 46.7, "unit": "%"},
      {"measurement": "inhibition of growth at 10 µg/mL", "setting": "[7]", "result": -9.78, "unit": "%"},
      {"measurement": "inhibition of growth at 10 µg/mL", "setting": "[8]", "result": -6.24, "unit": "%"}
    ]},
    {"smiles": "COc1cc(Cl)nc(NC(=S)NC(=O)c2c(-c3ccc(Cl)cc3Cl)noc2C)n1", "values": [
      {"measurement": "inhibition of growth at 10 µg/mL", "setting": "[1]", "result": 30.7, "unit": "%"},
      {"measurement": "inhibition of growth at 100 µg/mL", "setting": "[2]", "result": 56.3, "unit": "%"},
      {"measurement": "inhibition of growth at 100 µg/mL", "setting": "[3]", "result": 61, "unit": "%"},
      {"measurement": "inhibition of growth at 100 µg/mL", "setting": "[4]", "result": 62.2, "unit": "%"},
      {"measurement": "inhibition of growth at 10 µg/mL", "setting": "[5]", "result": 21.9, "unit": "%"},
      {"measurement": "inhibition of growth at 100 µg/mL", "setting": "[6]", "result": 53.2, "unit": "%"},
      {"measurement": "inhibition of growth at 10 µg/mL", "setting": "[7]", "result": 18.5, "unit": "%"},
      {"measurement": "inhibition of growth at 10 µg/mL", "setting": "[8]", "result": 14.6, "unit": "%"}
    ]},
    {"smiles": "Cc1cc(C)nc(NC(=S)NC(=O)c2c(-c3ccc(Cl)cc3Cl)noc2C)n1", "values": [
      {"measurement": "inhibition of growth at 10 µg/mL", "setting": "[1]", "result": 16.1, "unit": "%"},
      {"measurement": "inhibition of growth at 100 µg/mL", "setting": "[2]", "result": 64.7, "unit": "%"},
      {"measurement": "inhibition of growth at 100 µg/mL", "setting": "[3]", "result": 68, "unit": "%"},
      {"measurement": "inhibition of growth at 100 µg/mL", "setting": "[4]", "result": 61.4, "unit": "%"},
      {"measurement": "inhibition of growth at 10 µg/mL", "setting": "[5]", "result": 16.9, "unit": "%"},
      {"measurement": "inhibition of growth at 100 µg/mL", "setting": "[6]", "result": 65.4, "unit": "%"},
      {"measurement": "inhibition of growth at 10 µg/mL", "setting": "[7]", "result": 18.5, "unit": "%"},
      {"measurement": "inhibition of growth at 10 µg/mL", "setting": "[8]", "result": 26.5, "unit": "%"}
    ]},
    {"smiles": "COc1cc(OC)nc(NC(=S)NC(=O)c2c(-c3ccc(Cl)cc3Cl)noc2C)n1", "values": [
      {"measurement": "inhibition of growth at 10 µg/mL", "setting": "[1]", "result": 35.2, "unit": "%"},
      {"measurement": "inhibition of growth at 100 µg/mL", "setting": "[2]", "result": 60.9, "unit": "%"},
      {"measurement": "inhibition of growth at 100 µg/mL", "setting": "[3]", "result": 70.8, "unit": "%"},
      {"measurement": "inhibition of growth at 100 µg/mL", "setting": "[4]", "result": 65.9, "unit": "%"},
      {"measurement": "inhibition of growth at 10 µg/mL", "setting": "[5]", "result": 30.7, "unit": "%"},
      {"measurement": "inhibition of growth at 100 µg/mL", "setting": "[6]", "result": 78.6, "unit": "%"},
      {"measurement": "inhibition of growth at 10 µg/mL", "setting": "[7]", "result": 21.8, "unit": "%"},
      {"measurement": "inhibition of growth at 10 µg/mL", "setting": "[8]", "result": 32, "unit": "%"}
    ]},
    {"smiles": "Cc1cc(O)n2s/c(=N\\C(=O)c3c(-c4ccc(Cl)cc4Cl)noc3C)nc2n1", "values": [
      {"measurement": "inhibition of growth at 10 µg/mL", "setting": "[1]", "result": 38.5, "unit": "%"},
      {"measurement": "inhibition of growth at 100 µg/mL", "setting": "[2]", "result": 65.8, "unit": "%"},
      {"measurement": "inhibition of growth at 100 µg/mL", "setting": "[3]", "result": 79.2, "unit": "%"},
      {"measurement": "inhibition of growth at 100 µg/mL", "setting": "[4]", "result": 72.1, "unit": "%"},
      {"measurement": "inhibition of growth at 10 µg/mL", "setting": "[5]", "result": 32.9, "unit": "%"},
      {"measurement": "inhibition of growth at 100 µg/mL", "setting": "[6]", "result": 59.3, "unit": "%"},
      {"measurement": "inhibition of growth at 10 µg/mL", "setting": "[7]", "result": 30.5, "unit": "%"},
      {"measurement": "inhibition of growth at 10 µg/mL", "setting": "[8]", "result": 30.1, "unit": "%"}
    ]},
    {"smiles": "Cc1onc(-c2ccc(Cl)cc2Cl)c1C(=O)/N=c1/nc2nc(Cl)cc(C)n2s1", "values": [
      {"measurement": "inhibition of growth at 10 µg/mL", "setting": "[1]", "result": 20.1, "unit": "%"},
      {"measurement": "inhibition of growth at 100 µg/mL", "setting": "[2]", "result": 55.6, "unit": "%"},
      {"measurement": "inhibition of growth at 100 µg/mL", "setting": "[3]", "result": 70.2, "unit": "%"},
      {"measurement": "inhibition of growth at 100 µg/mL", "setting": "[4]", "result": 68.1, "unit": "%"},
      {"measurement": "inhibition of growth at 10 µg/mL", "setting": "[5]", "result": 18.6, "unit": "%"},
      {"measurement": "inhibition of growth at 100 µg/mL", "setting": "[6]", "result": 73.6, "unit": "%"},
      {"measurement": "inhibition of growth at 10 µg/mL", "setting": "[7]", "result": 25.8, "unit": "%"},
      {"measurement": "inhibition of growth at 10 µg/mL", "setting": "[8]", "result": 32.8, "unit": "%"}
    ]},
    {"smiles": "COc1cc(SC)nc(NC(=S)NC(=O)c2c(-c3ccc(Cl)cc3Cl)noc2C)n1", "values": [
      {"measurement": "inhibition of growth at 10 µg/mL", "setting": "[1]", "result": 18.7, "unit": "%"},
      {"measurement": "inhibition of growth at 100 µg/mL", "setting": "[2]", "result": 40.9, "unit": "%"},
      {"measurement": "inhibition of growth at 100 µg/mL", "setting": "[3]", "result": 69.2, "unit": "%"},
      {"measurement": "inhibition of growth at 100 µg/mL", "setting": "[4]", "result": 55.6, "unit": "%"},
      {"measurement": "inhibition of growth at 10 µg/mL", "setting": "[5]", "result": -8.31, "unit": "%"},
      {"measurement": "inhibition of growth at 100 µg/mL", "setting": "[6]", "result": 60.3, "unit": "%"},
      {"measurement": "inhibition of growth at 10 µg/mL", "setting": "[7]", "result": 19.3, "unit": "%"},
      {"measurement": "inhibition of growth at 10 µg/mL", "setting": "[8]", "result": 34.8, "unit": "%"}
    ]},
    {"smiles": "CCOC(=O)[C@@H](C)Oc1ccc(Oc2nc3ccc(Cl)cc3o2)cc1", "note": "[FENOXAPROP-P-ETHYL]", "values": [
      {"measurement": "inhibition of growth at 10 µg/mL", "setting": "[1]", "result": 16.4, "unit": "%"},
      {"measurement": "inhibition of growth at 100 µg/mL", "setting": "[2]", "result": 71.8, "unit": "%"},
      {"measurement": "inhibition of growth at 100 µg/mL", "setting": "[3]", "result": 42.2, "unit": "%"},
      {"measurement": "inhibition of growth at 100 µg/mL", "setting": "[4]", "result": 85.6, "unit": "%"},
      {"measurement": "inhibition of growth at 10 µg/mL", "setting": "[5]", "result": 16.8, "unit": "%"},
      {"measurement": "inhibition of growth at 100 µg/mL", "setting": "[6]", "result": 48.7, "unit": "%"},
      {"measurement": "inhibition of growth at 10 µg/mL", "setting": "[7]", "result": 58.4, "unit": "%"},
      {"measurement": "inhibition of growth at 10 µg/mL", "setting": "[8]", "result": 35.7, "unit": "%"}
    ]}
  ]
}
